Earlier results, collected in paper PMC3166015 (Emerging Infectious Diseases, 2011).

Test system: earliest pandemic (H1N1) 2009 virus isolates
Conditions: cited from earlier work

Structure (SMILES)	susceptibility of earliest virus isolates
CC(N)C12CC3CC(CC(C3)C1)C2 (stereo not shown) [rimantadine]	resistant
CCOC(=O)C1=C[C@@H](OC(CC)CC)[C@H](NC(C)=O)[C@@H](N)C1 [Oseltamivir, oseltamivir]	sensitive
CC(=O)N[C@H]1[C@H]([C@H](O)[C@H](O)CO)OC(C(=O)O)=C[C@@H]1N=C(N)N [Zanamivir, zanamivir]	sensitive
NC12CC3CC(CC(C3)C1)C2 [amantadine]	resistant
